Values quoted from earlier work as cited in patent JP2021073187A, “即効型インスリン組成物” (Eli Lilly and Co, priority 2014, dated 2021).

インスリンリスプロ: drug substance of HUMALOG, CAS 133107-64-9; A chain SEQ ID 1, B chain SEQ ID 3 [28B−L−リジン−29B−L−プロリン ヒトインスリン]
Potency relative to human insulin (on a molar basis): 等しい効力
Effect after subcutaneous injection relative to injected soluble human insulin (subcutaneous injection): 迅速で短い持続時間
